The text below walks through data of ChEMBL document CHEMBL1201862, “PubChem BioAssay data set” (2004).

Structures are written as SMILES.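 Grown in 96-well plates, cells were treated for 48 hours with each compound at five concentrations. Insufficient inhibition: endpoint recorded as highest concentration tested. The concentration for 50% growth inhibition is given as GI50.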 Activity calls are given as the source filed them. Rule as the data show it: active = GI50 up to about 1.1 µM and inactive = higher.

Some test systems named below: CCRF-CEM; DU-145; EKVX; HCT-15; HL-60; HOP-62; IGROV-1; K562; KM12; M14; NCI-H522; OVCAR-4; OVCAR-5; RPMI-8226; RXF 393; SF-268; SNB-19; T47D; TK-10; UACC-257.
Common to all, as to assay: NCI anticancer screen, dose series, 48 h

Regarding `COc1ccc(-n2nnc3c(C#N)c(-c4ccccc4)c(C)n3c2=O)cc1`, the GI50 with CCRF-CEM is 8.39 µM (inactive); with DU-145, 74.8 µM (inactive); in the experiment on EKVX it was 62.2 µM (inactive); in the experiment on HCT-15, 31.4 µM; with HL-60, 3.69 µM (inactive); in the experiment on HOP-62 it was 35.4 µM (inactive). Further, the GI50 with IGROV-1 was 24 µM (inactive); in the experiment on K562, 18.4 µM (inactive); in the experiment with KM12 it was 48.9 µM (inactive); in the experiment on M14, 81.8 µM (inactive); in the experiment on NCI-H522, 22.6 µM (inactive); in the experiment on OVCAR-4, 28.8 µM (inactive). In addition, the GI50 in the experiment with OVCAR-5 is > 100 µM (inactive); with RPMI-8226, 26.1 µM (inactive); with RXF 393, 28.4 µM (inactive); in the experiment on SF-268, 83.4 µM (inactive); in the experiment with SNB-19, 78.7 µM (inactive); in the experiment with T47D, 49.5 µM (inactive). In addition, the figures for the GI50 with TK-10 and in the experiment with UACC-257 were 84.7 µM (inactive) and 85.5 µM (inactive), respectively.
Regarding `CC(=O)NNc1nc(C)c(C(=O)NNC(=O)C(=O)Nc2nc3ccc([N+](=O)[O-])cc3s2)s1`, the GI50 was 22 µM (inactive) in the experiment on CCRF-CEM; 70.1 µM (inactive) with DU-145; 30.7 µM (inactive) in the experiment on EKVX; > 68.1 µM in the experiment with HCT-15; 36.8 µM (inactive) with HL-60; > 82.6 µM (inactive) in the experiment with HOP-62. Moreover, the GI50 with IGROV-1 is 36.9 µM (inactive); with K562, 25 µM (inactive); with KM12 it was 33.9 µM (inactive); in the experiment with M14, > 67.8 µM (inactive); in the experiment with NCI-H522, 18.7 µM (inactive); in the experiment on OVCAR-4, 46.7 µM (inactive). Further, the GI50 in the experiment with OVCAR-5 was 82.8 µM (inactive); with RPMI-8226 it was 30.5 µM (inactive); in the experiment on RXF 393, > 59.8 µM (inactive); with SF-268, 49.1 µM (inactive); in the experiment on SNB-19, 81.7 µM (inactive); in the experiment on T47D, 22.6 µM (inactive). For the same compound, the GI50 with TK-10 is 50.4 µM (inactive); in the experiment with UACC-257, 77.8 µM (inactive).
With `CS(=O)(=O)OCCCCOS(=O)(=O)CF`, the GI50 with CCRF-CEM was 52.4 µM (inactive); in the experiment on DU-145 it was > 100 µM (inactive); with EKVX it was > 100 µM (inactive); with HCT-15 it was > 100 µM; with HL-60 it was 33.5 µM (inactive); with HOP-62, > 100 µM (inactive). The GI50 in the experiment on IGROV-1 was > 91.4 µM (inactive); in the experiment with K562, > 100 µM (inactive); in the experiment on KM12 it was > 100 µM (inactive); in the experiment on M14 it was > 100 µM (inactive); with NCI-H522 it was > 100 µM (inactive); with OVCAR-4, > 100 µM (inactive). Moreover, the GI50 in the experiment with OVCAR-5, in the experiment with RPMI-8226, in the experiment on RXF 393, in the experiment with SF-268, with SNB-19 and with T47D was > 100 µM (inactive) each time. Further, the GI50 in the experiment with TK-10 and in the experiment with UACC-257 was > 100 µM (inactive) in each case.
With `Nc1nn2c(nc(N)c3c(N)n[nH]c32)c1/N=N\c1ccc(Br)cc1`, the GI50 in the experiment on CCRF-CEM was 2.1 µM (inactive); with DU-145 it was > 100 µM (inactive); with EKVX, > 100 µM (inactive); in the experiment with HCT-15, > 91.8 µM; in the experiment with HL-60, 8.15 µM (inactive); with HOP-62, 42.9 µM (inactive). Besides, the GI50 in the experiment with IGROV-1 was 81.8 µM (inactive); in the experiment with K562, 2.16 µM (inactive); in the experiment on KM12, 13.1 µM (inactive); in the experiment on M14, 5.86 µM (inactive); in the experiment on NCI-H522, 27.5 µM (inactive); with OVCAR-4 it was 16.4 µM (inactive). The GI50 with OVCAR-5 was 23.7 µM (inactive); with RPMI-8226, > 100 µM (inactive); in the experiment with RXF 393 it was > 100 µM (inactive); in the experiment on SF-268 it was 7.66 µM (inactive); with SNB-19, 29.9 µM (inactive); in the experiment on T47D, 1.76 µM (inactive). For the same compound, the GI50 was 66.8 µM (inactive) in the experiment with TK-10 and 26.7 µM (inactive) in the experiment with UACC-257.
